Assay results: ChEMBL document CHEMBL1201862, “PubChem BioAssay data set” (2004)
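Cells were grown in 96-well plates and exposed to each compound for 48 hours at five concentrations; endpoints were interpolated linearly between bracketing concentrations, or set to the highest concentration if not reached. Abbreviation: GI50, concentration required for 50% inhibition of growth.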 Activity calls are given as the source filed them. Rule as the data show it: active = GI50 up to about 1.1 µM and inactive = higher.

Legend:
Assay in all cases: NCI-60 cell line screen, 48 h
[1] = system: COLO 205
[2] = system: HL-60
[3] = system: HOP-62
[4] = system: HT-29
[5] = system: M14
[6] = system: MDA-MB-435
[7] = system: NCI-H522
[8] = system: OVCAR-3
[9] = system: OVCAR-5
[10] = system: RPMI-8226
[11] = system: SF-295
[12] = system: SF-539
[13] = system: SK-MEL-2
[14] = system: SK-MEL-5
[15] = system: SR
[16] = system: TK-10
[17] = system: U-251
[18] = system: UACC-257
[19] = system: Malme-3M
[20] = system: A498

| SMILES | GI50 [1] | GI50 [2] | GI50 [3] | GI50 [4] | GI50 [5] | GI50 [6] | GI50 [7] | GI50 [8] | GI50 [9] | GI50 [10] | GI50 [11] | GI50 [12] | GI50 [13] | GI50 [14] | GI50 [15] | GI50 [16] | GI50 [17] | GI50 [18] | GI50 [19] | GI50 [20] |
| --- | --- | --- | --- | --- | --- | --- | --- | --- | --- | --- | --- | --- | --- | --- | --- | --- | --- | --- | --- | --- |
| CC(C)C1(NC(=O)C2CC3c4cccc5[nH]cc(c45)CC3N(C)C2)OC2(O)C3CCCN3C(=O)C(Cc3ccccc3)N2C1=O (centres undefined) | 14.2 µM (inactive) | 6.62 µM (inactive) | > 100 µM (inactive) | 11.6 µM (inactive) | 42.7 µM (inactive) | 19.4 µM (inactive) | 38.9 µM (inactive) | 16.2 µM (inactive) | > 100 µM (inactive) | 4.44 µM (inactive) | 16.7 µM (inactive) | 15.4 µM (inactive) | 29.2 µM (inactive) | 27.7 µM (inactive) | 12.9 µM (inactive) | 30.6 µM (inactive) | 34.3 µM (inactive) | 48.1 µM (inactive) |  |  |
| O=C(/C=C/c1cccs1)c1cccc(C(=O)/C=C/c2cccs2)n1 | > 100 µM (inactive) | 7.41 µM (inactive) | 25.4 µM (inactive) | 6.21 µM (inactive) | > 91.2 µM (inactive) | 52.7 µM (inactive) | 22.1 µM (inactive) | 42.2 µM (inactive) | > 73.1 µM (inactive) | 2.97 µM (inactive) | 76 µM (inactive) | 6 µM (inactive) | > 100 µM (inactive) | > 100 µM (inactive) | 2.26 µM (inactive) | > 100 µM (inactive) | 9.1 µM (inactive) | > 100 µM (inactive) | > 100 µM (inactive) |  |
| CCOc1cc(CCNC)c2c(ccc3ccc(OC)c(O)c32)c1OC | 19 µM (inactive) | 15 µM (inactive) | 20.3 µM (inactive) | 14.8 µM (inactive) | 13.9 µM (inactive) | 12.6 µM (inactive) | 5.14 µM (inactive) | 14.5 µM (inactive) | 14.5 µM (inactive) | 12.4 µM (inactive) | 16.2 µM (inactive) |  | 14.2 µM (inactive) | 11.8 µM (inactive) | 4.44 µM (inactive) | 18 µM (inactive) | 18.3 µM (inactive) | 13.1 µM (inactive) | 6.92 µM (inactive) |  |
| CN(C)c1nc2oc(-c3ccccc3)c(-c3ccccc3)c2c2nnnn12 | > 100 µM (inactive) | 19.8 µM (inactive) |  | > 100 µM (inactive) | > 100 µM (inactive) | > 100 µM (inactive) | > 100 µM (inactive) |  | > 100 µM (inactive) | > 100 µM (inactive) | > 100 µM (inactive) | > 100 µM (inactive) |  | > 100 µM (inactive) | > 100 µM (inactive) | > 100 µM (inactive) | > 100 µM (inactive) | > 100 µM (inactive) |  | > 100 µM (inactive) |
| CN(C(=O)Nc1ccc(Cl)c(Cl)c1)C1CCCC[C@@H]1N1CCCC1 (some centres undefined) | 18.1 µM (inactive) |  | > 100 µM (inactive) | 29.4 µM (inactive) | 19.1 µM (inactive) | 33 µM (inactive) | 41.7 µM (inactive) | 76.6 µM (inactive) | 32.4 µM (inactive) | 24.7 µM (inactive) | 84.7 µM (inactive) |  | 38.3 µM (inactive) | 16.3 µM (inactive) | 21 µM (inactive) | 33.3 µM (inactive) | 53.7 µM (inactive) | 18.8 µM (inactive) | 22 µM (inactive) | 24.2 µM (inactive) |
| O=C(Nc1nnc(-c2c(Cl)c(Cl)c(Cl)c(Cl)c2-c2nc3cc(C(=O)c4ccccc4)ccc3[nH]2)o1)c1ccccc1 | 12.2 µM (inactive) | 11.4 µM (inactive) | 10.4 µM (inactive) | 23.8 µM (inactive) | 15.4 µM (inactive) | 3.89 µM (inactive) |  | 15 µM (inactive) | 26.4 µM (inactive) | 12.4 µM (inactive) | 9.46 µM (inactive) | 11.5 µM (inactive) | 17.7 µM (inactive) | 5.07 µM (inactive) | 4.9 µM (inactive) | 21.8 µM (inactive) | 13.6 µM (inactive) | 23.2 µM (inactive) |  | 18.2 µM (inactive) |
| Cc1n[nH]c(C(F)(F)F)c1/N=N/N1CCOCC1 | 4.69 µM (inactive) |  | 8.77 µM (inactive) | 3.24 µM (inactive) | 14.7 µM (inactive) | 12.2 µM (inactive) | 3.94 µM (inactive) | 7.21 µM (inactive) | 6.37 µM (inactive) | 0.873 µM (active) | 12.6 µM (inactive) | 14.2 µM (inactive) | 13.1 µM (inactive) | 2.92 µM (inactive) | 1.24 µM (inactive) | 12 µM (inactive) | 12 µM (inactive) | 9.77 µM (inactive) | 14.9 µM (inactive) | 17.4 µM (inactive) |
| CO[C@]1(c2ccc([N+](=O)[O-])cc2)Oc2ccccc2C(=O)[C@@]1(Nc1ccc(C=O)cc1)OC | > 10 µM (inactive) | > 10 µM (inactive) | > 10 µM (inactive) | > 10 µM (inactive) | > 10 µM (inactive) | > 10 µM (inactive) |  | > 10 µM (inactive) | > 10 µM (inactive) | > 10 µM (inactive) | > 10 µM (inactive) | > 10 µM (inactive) | > 10 µM (inactive) | > 10 µM (inactive) | > 10 µM (inactive) | > 10 µM (inactive) | > 10 µM (inactive) | > 10 µM (inactive) | > 10 µM (inactive) | > 10 µM (inactive) |
| Nc1ncnc2c1ncn2[C@H]1C=C[C@@H](NO)C1 | > 100 µM (inactive) |  | > 100 µM (inactive) |  | > 100 µM (inactive) | > 100 µM (inactive) | > 100 µM (inactive) | > 100 µM (inactive) | > 100 µM (inactive) | > 100 µM (inactive) | > 100 µM (inactive) | > 100 µM (inactive) | > 100 µM (inactive) | > 100 µM (inactive) | > 100 µM (inactive) | > 100 µM (inactive) | > 100 µM (inactive) | > 100 µM (inactive) | > 100 µM (inactive) | > 100 µM (inactive) |
| COc1ccc(C2Oc3c(cccc3-c3c(-c4ccc(O)cc4)oc4cc(O)cc(O)c4c3=O)C(=O)C2O)cc1O (centres undefined) | > 100 µM (inactive) | > 100 µM (inactive) | > 100 µM (inactive) | > 100 µM (inactive) | > 100 µM (inactive) | > 100 µM (inactive) |  | > 100 µM (inactive) | > 100 µM (inactive) | 83.2 µM (inactive) | > 100 µM (inactive) |  |  | > 100 µM (inactive) | > 100 µM (inactive) | > 100 µM (inactive) | > 100 µM (inactive) | > 100 µM (inactive) | > 100 µM (inactive) | > 100 µM (inactive) |
| Cc1c(/C=N/NC(=S)Nc2ccc([N+](=O)[O-])cc2)c(=O)n(-c2ccccc2)n1C | 50.4 µM (inactive) | 35.2 µM (inactive) | 11.6 µM (inactive) | 12.9 µM (inactive) | 11.2 µM (inactive) | > 100 µM (inactive) |  |  |  | 48.5 µM (inactive) | 8.53 µM (inactive) | 16.4 µM (inactive) | 15.5 µM (inactive) | 33.8 µM (inactive) | 17.4 µM (inactive) | 11.8 µM (inactive) | 15.6 µM (inactive) | 30.9 µM (inactive) |  | 10.9 µM (inactive) |
| CCn1c(-c2ccccc2)nc2c1C(=O)c1ccccc1C2=O | 14.1 µM (inactive) | 18 µM (inactive) | 42.5 µM (inactive) | 8.99 µM (inactive) | 15.4 µM (inactive) | 15.9 µM (inactive) | 15.2 µM (inactive) | 5.89 µM (inactive) | 32.9 µM (inactive) | 36.6 µM (inactive) | 30.1 µM (inactive) | 32.4 µM (inactive) |  | 11.2 µM (inactive) | 22.3 µM (inactive) | 36.2 µM (inactive) | 29.9 µM (inactive) | 3.85 µM (inactive) | 8.81 µM (inactive) |  |
| N#Cc1nc(-c2cc([N+](=O)[O-])cc([N+](=O)[O-])c2)oc1N | > 10 µM (inactive) | > 10 µM (inactive) | > 10 µM (inactive) | > 10 µM (inactive) | > 10 µM (inactive) | > 10 µM (inactive) | > 10 µM (inactive) |  |  | > 10 µM (inactive) | > 10 µM (inactive) | > 10 µM (inactive) |  | > 10 µM (inactive) | > 10 µM (inactive) | > 10 µM (inactive) |  | > 10 µM (inactive) | > 10 µM (inactive) |  |
| Nc1nc(O)c2nc(CNc3ccc(C(=O)NC(CCC(=O)O)C(=O)O)cc3)cnc2n1 (centres undefined) |  |  | > 100 µM (inactive) | > 100 µM (inactive) | > 100 µM (inactive) | > 100 µM (inactive) | > 100 µM (inactive) | > 100 µM (inactive) | > 100 µM (inactive) | > 100 µM (inactive) | > 100 µM (inactive) | > 100 µM (inactive) | > 100 µM (inactive) | > 100 µM (inactive) | > 100 µM (inactive) | > 100 µM (inactive) | > 100 µM (inactive) | > 100 µM (inactive) | > 100 µM (inactive) |  |
| COc1ccc(-c2oc3cc(OC)c(OC)c(O)c3c(=O)c2OC)cc1 | > 100 µM (inactive) | 29.4 µM (inactive) | 30.3 µM (inactive) | > 100 µM (inactive) | > 100 µM (inactive) | > 100 µM (inactive) | 33.7 µM (inactive) |  | > 100 µM (inactive) | > 100 µM (inactive) | 20.8 µM (inactive) | 30.9 µM (inactive) | 30.6 µM (inactive) | > 100 µM (inactive) | > 100 µM (inactive) | 34.1 µM (inactive) | 34 µM (inactive) | > 100 µM (inactive) | > 100 µM (inactive) |  |
